Measured values as given in patent publication US20230074545A1, “TREATMENT OF CANCER WITH CDK12/13 INHIBITORS” (Kinnate Biopharma Inc., priority 2019, published 2023).

Tests used:
Assay in all cases: Radiometric kinase panel
Format in all cases: biochemical
[1] = molecular target: T1, TYK2 (Homo sapiens, UniProt P29597)
T1 construct: either as full-length or enzymatically active fragments; purchased ProQinase GmbH (Reaction Biology)
Procedure: (§1) The compounds 1-5 (see Table 1) were assayed for kinase activity at ProQinase (ProQinase GmbH, Reaction Biology; Freiburg, Germany) using their commercially available radiometric kinase assay services. Briefly, the compounds were provided as solids and were dissolved to 1×10^−03 M/100% DMSO stock solutions on the day of assay. All protein kinases were provided by ProQinase and were expressed in Sf9 insect cells or in E. coli as recombinant GST-fusion proteins or His-tagged proteins, either as full-length or enzymatically active fragments. All kinases were produced from human cDNAs and purified by either GSH-affinity chromatography or immobilized metal. The purity of the protein kinases was examined by SDS-PAGE/Coomassie staining, the identity was checked by mass spectroscopy. A radiometric protein kinase assay (^33PanQinase® Activity Assay) was used for measuring the kinase activity of the protein kinase. All kinase assays were performed in 96-well FlashPlates™ from PerkinElmer (Boston, Mass., USA) in a 50 microliter reaction volume. The reaction cocktail was pipetted in four steps in the following order: 1) 25 microliter of assay buffer (standard buffer/[gamma-^33P]-ATP); 2) 10 microliter of ATP solution (in H2O); 3) 5 microliter of test compound (in 10% DMSO); 4) 10 microliter of enzyme/substrate mixture.
(§2) Compound 4 was analyzed for selectivity against a panel of other kinases at ProQinase using their commercially available radiometric kinase assay services and the methods described in Example 1.

[2] = molecular target: T2, p38delta (Homo sapiens, UniProt O15264)
T2 construct: either as full-length or enzymatically active fragments; purchased ProQinase GmbH (Reaction Biology)
Procedure: as §1, §2

[3] = molecular target: T3, GSG2 (Homo sapiens, UniProt Q8TF76)
T3 construct: either as full-length or enzymatically active fragments; purchased ProQinase GmbH (Reaction Biology); host or cells: Sf9 insect cells or E. coli
Procedure: as §1, §2

[4] = molecular target: T4, TGFBR2 (Homo sapiens, UniProt P37173)
T4 construct: either as full-length or enzymatically active fragments; purchased ProQinase GmbH (Reaction Biology)
T4 sequence (P37173 23-567): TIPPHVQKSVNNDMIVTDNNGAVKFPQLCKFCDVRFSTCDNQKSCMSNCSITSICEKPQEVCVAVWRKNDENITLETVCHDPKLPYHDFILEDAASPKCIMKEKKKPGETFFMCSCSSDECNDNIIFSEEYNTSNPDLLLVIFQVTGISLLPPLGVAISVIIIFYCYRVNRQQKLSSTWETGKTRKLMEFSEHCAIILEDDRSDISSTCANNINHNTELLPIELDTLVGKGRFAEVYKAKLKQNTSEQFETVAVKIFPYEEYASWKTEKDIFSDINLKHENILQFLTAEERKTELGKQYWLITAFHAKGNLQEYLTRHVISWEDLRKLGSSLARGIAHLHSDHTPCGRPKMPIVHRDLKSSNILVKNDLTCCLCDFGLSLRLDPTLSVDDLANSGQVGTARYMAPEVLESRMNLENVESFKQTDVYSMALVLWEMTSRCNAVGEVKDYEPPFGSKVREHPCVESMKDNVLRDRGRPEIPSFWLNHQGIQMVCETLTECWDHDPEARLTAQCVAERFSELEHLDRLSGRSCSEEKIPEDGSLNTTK
Procedure: as §1, §2

[5] = molecular target: T5, PAK1 (Homo sapiens, UniProt Q13153)
T5 construct: either as full-length or enzymatically active fragments; purchased ProQinase GmbH (Reaction Biology)
Procedure: as §1, §2

[6] = molecular target: T6, CLK3 (Homo sapiens, UniProt P49761)
T6 construct: either as full-length or enzymatically active fragments; purchased ProQinase GmbH (Reaction Biology)
Procedure: as §1, §2

[7] = molecular target: T7, CK2alpha1 (Homo sapiens, UniProt P68400)
T7 construct: either as full-length or enzymatically active fragments; purchased ProQinase GmbH (Reaction Biology)
Procedure: as §1, §2

[8] = molecular target: T8, MYLK (Homo sapiens, UniProt Q15746)
T8 construct: either as full-length or enzymatically active fragments; purchased ProQinase GmbH (Reaction Biology)
Procedure: as §1, §2

[9] = molecular target: T9, CDK13/CycK (Homo sapiens, UniProt Q14004)
T9 construct: either as full-length or enzymatically active fragments; purchased ProQinase GmbH (Reaction Biology)
Procedure: as §1, §2

[10] = molecular target: T10, IKKepsilon (Homo sapiens, UniProt Q14164)
T10 construct: either as full-length or enzymatically active fragments; purchased ProQinase GmbH (Reaction Biology)
Procedure: as §1, §2

[11] = molecular target: T11, JAK1 (Homo sapiens, UniProt P23458)
T11 construct: purchased ProQinase GmbH (Reaction Biology)
Procedure: as §1, §2

[12] = molecular target: T12, DYRK3 (Homo sapiens, UniProt O43781)
T12 construct: either as full-length or enzymatically active fragments; purchased ProQinase GmbH (Reaction Biology)
Procedure: as §1, §2

[13] = molecular target: T13, DAPK1 (Homo sapiens, UniProt P53355)
T13 construct: either as full-length or enzymatically active fragments; purchased ProQinase GmbH (Reaction Biology); host or cells: Sf9 insect cells or E. coli
Procedure: as §1, §2

[14] = molecular target: T14, EPHA7 (Homo sapiens, UniProt Q15375)
T14 construct: either as full-length or enzymatically active fragments; purchased ProQinase GmbH (Reaction Biology)
Procedure: as §1, §2

[15] = molecular target: T15, HRI (Homo sapiens, UniProt Q9BQI3)
T15 construct: either as full-length or enzymatically active fragments; purchased ProQinase GmbH (Reaction Biology)
Procedure: as §1, §2

[16] = molecular target: T16, DMPK (Homo sapiens, UniProt Q09013)
T16 construct: either as full-length or enzymatically active fragments; purchased ProQinase GmbH (Reaction Biology); host or cells: Sf9 insect cells or E. coli
Procedure: as §1, §2

[17] = molecular target: T17, PDGFRbeta (Homo sapiens, UniProt P09619)
T17 construct: either as full-length or enzymatically active fragments; purchased ProQinase GmbH (Reaction Biology)
Procedure: as §1, §2

[18] = molecular target: T18, CDK1/CycA2 (Homo sapiens, UniProt P06493)
T18 construct: either as full-length or enzymatically active fragments; purchased ProQinase GmbH (Reaction Biology)
T18 sequence (P06493 whole entry, the tested form may be a part): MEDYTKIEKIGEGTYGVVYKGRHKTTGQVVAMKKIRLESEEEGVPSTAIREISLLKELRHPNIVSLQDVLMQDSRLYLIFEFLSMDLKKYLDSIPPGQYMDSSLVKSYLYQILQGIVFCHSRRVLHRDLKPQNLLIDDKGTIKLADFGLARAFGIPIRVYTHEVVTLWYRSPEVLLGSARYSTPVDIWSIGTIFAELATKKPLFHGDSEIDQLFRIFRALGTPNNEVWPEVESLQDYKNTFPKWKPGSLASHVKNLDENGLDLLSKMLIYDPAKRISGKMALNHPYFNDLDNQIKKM
T18 sequence (P20248 whole entry partner, the tested form may be a part): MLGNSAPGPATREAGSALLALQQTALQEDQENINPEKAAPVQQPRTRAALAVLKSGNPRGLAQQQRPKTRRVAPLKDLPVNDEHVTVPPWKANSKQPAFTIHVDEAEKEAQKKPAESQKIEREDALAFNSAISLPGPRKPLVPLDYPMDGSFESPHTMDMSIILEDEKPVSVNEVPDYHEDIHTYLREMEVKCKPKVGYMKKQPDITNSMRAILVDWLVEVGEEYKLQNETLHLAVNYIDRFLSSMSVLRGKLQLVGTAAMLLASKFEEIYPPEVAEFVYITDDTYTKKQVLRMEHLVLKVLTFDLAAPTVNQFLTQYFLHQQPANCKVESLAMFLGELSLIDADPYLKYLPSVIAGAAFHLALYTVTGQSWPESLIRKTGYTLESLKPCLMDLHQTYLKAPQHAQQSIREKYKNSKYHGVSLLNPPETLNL
Procedure: as §1, §2

[19] = molecular target: T19, CDK17/p35NCK (Homo sapiens, UniProt Q00537)
T19 construct: either as full-length or enzymatically active fragments; purchased ProQinase GmbH (Reaction Biology); host or cells: Sf9 insect cells or E. coli
Procedure: as §1, §2

[20] = molecular target: T20, AMPKalpha1 (Homo sapiens, UniProt Q13131)
T20 construct: either as full-length or enzymatically active fragments; purchased ProQinase GmbH (Reaction Biology)
Procedure: as §1, §2

[21] = molecular target: T21, MAP3K11 (Homo sapiens, UniProt Q16584)
T21 construct: either as full-length or enzymatically active fragments; purchased ProQinase GmbH (Reaction Biology)
Procedure: as §1, §2

[22] = molecular target: T22, RIPK2 (Homo sapiens, UniProt O43353)
T22 construct: either as full-length or enzymatically active fragments; purchased ProQinase GmbH (Reaction Biology)
Procedure: as §1, §2

[23] = molecular target: T23, VEGFR1 (Homo sapiens, UniProt P17948)
T23 construct: either as full-length or enzymatically active fragments; purchased ProQinase GmbH (Reaction Biology); host or cells: Sf9 insect cells or E. coli (not specified per kinase)
T23 sequence (P17948 27-1338): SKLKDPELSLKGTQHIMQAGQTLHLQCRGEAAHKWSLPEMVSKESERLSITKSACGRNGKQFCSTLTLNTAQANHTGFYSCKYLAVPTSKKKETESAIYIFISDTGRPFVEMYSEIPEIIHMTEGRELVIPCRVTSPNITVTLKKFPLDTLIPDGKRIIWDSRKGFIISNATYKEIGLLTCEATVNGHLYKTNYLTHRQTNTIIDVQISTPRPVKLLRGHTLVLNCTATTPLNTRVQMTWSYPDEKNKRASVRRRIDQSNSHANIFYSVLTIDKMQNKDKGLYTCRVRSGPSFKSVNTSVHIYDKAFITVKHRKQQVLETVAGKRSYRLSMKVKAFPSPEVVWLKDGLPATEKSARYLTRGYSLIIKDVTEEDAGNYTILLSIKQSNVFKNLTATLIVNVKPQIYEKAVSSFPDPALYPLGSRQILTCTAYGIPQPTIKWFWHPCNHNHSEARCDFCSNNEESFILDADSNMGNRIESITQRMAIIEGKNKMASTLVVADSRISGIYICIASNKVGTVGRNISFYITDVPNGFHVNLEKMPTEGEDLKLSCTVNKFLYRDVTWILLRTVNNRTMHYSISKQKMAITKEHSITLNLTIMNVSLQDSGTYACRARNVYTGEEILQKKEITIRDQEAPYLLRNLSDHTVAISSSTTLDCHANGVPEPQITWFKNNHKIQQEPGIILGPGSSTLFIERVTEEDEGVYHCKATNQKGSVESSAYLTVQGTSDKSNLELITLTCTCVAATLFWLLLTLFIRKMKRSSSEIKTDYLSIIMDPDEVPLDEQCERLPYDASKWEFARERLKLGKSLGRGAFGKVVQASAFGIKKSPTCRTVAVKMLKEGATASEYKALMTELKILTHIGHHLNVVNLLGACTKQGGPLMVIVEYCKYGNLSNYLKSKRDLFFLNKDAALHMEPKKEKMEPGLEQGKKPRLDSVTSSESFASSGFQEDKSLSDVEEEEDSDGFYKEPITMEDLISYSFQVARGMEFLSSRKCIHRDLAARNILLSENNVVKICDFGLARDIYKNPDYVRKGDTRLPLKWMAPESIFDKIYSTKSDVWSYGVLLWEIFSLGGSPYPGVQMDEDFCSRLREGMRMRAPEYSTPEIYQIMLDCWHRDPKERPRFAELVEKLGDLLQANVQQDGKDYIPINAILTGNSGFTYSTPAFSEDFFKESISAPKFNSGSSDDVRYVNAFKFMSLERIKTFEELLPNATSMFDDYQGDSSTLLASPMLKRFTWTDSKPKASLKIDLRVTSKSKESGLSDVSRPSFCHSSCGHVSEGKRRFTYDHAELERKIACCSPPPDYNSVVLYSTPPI
Procedure: as §1, §2

[24] = molecular target: T24, SGK3 (Homo sapiens, UniProt Q96BR1)
T24 construct: either as full-length or enzymatically active fragments; purchased ProQinase GmbH (Reaction Biology)
Procedure: as §1, §2

[25] = molecular target: T25, PIM3 (Homo sapiens, UniProt Q86V86)
T25 construct: either as full-length or enzymatically active fragments; purchased ProQinase GmbH (Reaction Biology)
Procedure: as §1, §2

[26] = molecular target: T26, ERBB4 (Homo sapiens, UniProt Q15303)
T26 construct: either as full-length or enzymatically active fragments; purchased ProQinase GmbH (Reaction Biology); host or cells: Sf9 insect cells or E. coli (not specified per kinase)
T26 sequence (Q15303 26-1308): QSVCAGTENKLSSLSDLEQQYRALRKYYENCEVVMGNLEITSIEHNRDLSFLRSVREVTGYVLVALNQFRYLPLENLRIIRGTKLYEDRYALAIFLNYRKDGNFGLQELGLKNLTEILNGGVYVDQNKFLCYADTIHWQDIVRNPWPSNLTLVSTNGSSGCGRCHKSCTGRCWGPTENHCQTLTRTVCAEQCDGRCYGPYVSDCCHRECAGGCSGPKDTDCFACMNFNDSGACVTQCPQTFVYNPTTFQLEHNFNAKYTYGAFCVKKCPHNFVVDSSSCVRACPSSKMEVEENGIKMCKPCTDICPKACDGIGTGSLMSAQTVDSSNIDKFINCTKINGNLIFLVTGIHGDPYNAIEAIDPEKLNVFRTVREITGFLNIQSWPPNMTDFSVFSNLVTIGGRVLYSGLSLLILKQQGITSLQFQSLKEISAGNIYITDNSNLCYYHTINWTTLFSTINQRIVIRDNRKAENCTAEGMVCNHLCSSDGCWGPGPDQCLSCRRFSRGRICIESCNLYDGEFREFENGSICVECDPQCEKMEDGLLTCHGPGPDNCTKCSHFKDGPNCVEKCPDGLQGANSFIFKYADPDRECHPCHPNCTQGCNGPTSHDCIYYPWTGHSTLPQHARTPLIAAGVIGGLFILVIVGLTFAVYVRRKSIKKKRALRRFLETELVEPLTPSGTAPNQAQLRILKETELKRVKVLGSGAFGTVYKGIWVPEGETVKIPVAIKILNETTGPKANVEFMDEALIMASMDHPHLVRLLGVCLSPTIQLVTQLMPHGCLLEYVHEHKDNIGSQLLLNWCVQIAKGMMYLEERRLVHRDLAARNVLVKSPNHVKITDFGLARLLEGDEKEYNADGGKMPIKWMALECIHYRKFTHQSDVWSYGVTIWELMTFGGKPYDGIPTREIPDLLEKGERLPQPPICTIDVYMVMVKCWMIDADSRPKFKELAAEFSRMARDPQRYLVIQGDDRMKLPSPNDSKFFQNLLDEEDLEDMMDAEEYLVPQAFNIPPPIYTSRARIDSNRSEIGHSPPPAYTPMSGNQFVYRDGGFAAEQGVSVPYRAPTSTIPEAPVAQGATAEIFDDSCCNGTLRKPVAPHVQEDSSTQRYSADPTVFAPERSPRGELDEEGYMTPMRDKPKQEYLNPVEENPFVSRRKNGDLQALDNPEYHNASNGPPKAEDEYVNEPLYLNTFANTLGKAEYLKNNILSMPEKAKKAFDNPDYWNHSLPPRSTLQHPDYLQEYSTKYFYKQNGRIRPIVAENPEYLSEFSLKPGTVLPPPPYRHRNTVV
Procedure: as §1, §2

[27] = molecular target: T27, CK2alpha2 (Homo sapiens, UniProt P19784)
T27 construct: either as full-length or enzymatically active fragments; purchased ProQinase GmbH (Reaction Biology)
Procedure: as §1, §2

[28] = molecular target: T28, EPHB1 (Homo sapiens, UniProt P54762)
T28 construct: either as full-length or enzymatically active fragments; purchased ProQinase GmbH (Reaction Biology)
Procedure: as §1, §2

[29] = molecular target: T29, NEK1 (Homo sapiens, UniProt Q96PY6)
T29 construct: purchased ProQinase GmbH (Reaction Biology)
Procedure: as §1, §2

[30] = molecular target: T30, CHK1 (Homo sapiens, UniProt O14757)
T30 construct: either as full-length or enzymatically active fragments; purchased ProQinase GmbH (Reaction Biology)
Procedure: as §1, §2

[31] = molecular target: T31, HIPK1 (Homo sapiens, UniProt Q86Z02)
T31 construct: either as full-length or enzymatically active fragments; purchased ProQinase GmbH (Reaction Biology); host or cells: Sf9 insect cells or E. coli (not specified per kinase)
T31 sequence (Q86Z02 whole entry, the tested form may be a part): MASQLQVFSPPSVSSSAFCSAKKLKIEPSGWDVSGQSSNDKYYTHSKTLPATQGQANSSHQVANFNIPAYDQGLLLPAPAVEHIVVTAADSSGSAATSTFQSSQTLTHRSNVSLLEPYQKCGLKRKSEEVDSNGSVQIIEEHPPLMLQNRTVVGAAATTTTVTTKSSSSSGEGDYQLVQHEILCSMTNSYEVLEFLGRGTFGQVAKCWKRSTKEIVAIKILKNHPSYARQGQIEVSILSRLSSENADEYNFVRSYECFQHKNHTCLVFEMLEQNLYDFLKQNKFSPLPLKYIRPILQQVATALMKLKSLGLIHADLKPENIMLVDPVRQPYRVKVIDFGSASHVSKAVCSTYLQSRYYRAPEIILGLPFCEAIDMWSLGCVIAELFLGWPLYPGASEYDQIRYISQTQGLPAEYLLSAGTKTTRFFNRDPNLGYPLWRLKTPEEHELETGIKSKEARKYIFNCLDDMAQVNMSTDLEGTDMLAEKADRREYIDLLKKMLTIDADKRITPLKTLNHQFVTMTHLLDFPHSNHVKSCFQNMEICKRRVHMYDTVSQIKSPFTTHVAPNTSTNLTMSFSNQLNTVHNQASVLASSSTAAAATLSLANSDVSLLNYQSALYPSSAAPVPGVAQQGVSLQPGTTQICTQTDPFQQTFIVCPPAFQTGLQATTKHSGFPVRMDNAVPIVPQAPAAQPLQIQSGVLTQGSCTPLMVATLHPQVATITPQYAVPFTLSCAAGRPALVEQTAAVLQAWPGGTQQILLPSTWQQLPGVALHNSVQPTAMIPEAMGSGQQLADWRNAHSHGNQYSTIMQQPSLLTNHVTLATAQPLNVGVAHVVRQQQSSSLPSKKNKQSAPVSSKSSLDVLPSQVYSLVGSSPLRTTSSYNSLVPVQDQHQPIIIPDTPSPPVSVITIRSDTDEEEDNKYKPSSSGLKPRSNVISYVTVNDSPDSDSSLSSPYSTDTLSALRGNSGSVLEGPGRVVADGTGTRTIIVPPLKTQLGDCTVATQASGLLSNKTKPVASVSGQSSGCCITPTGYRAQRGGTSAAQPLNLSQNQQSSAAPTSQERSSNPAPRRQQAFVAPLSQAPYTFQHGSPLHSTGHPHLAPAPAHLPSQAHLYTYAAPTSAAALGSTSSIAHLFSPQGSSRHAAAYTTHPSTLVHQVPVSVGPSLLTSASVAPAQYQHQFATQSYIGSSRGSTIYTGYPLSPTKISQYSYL
Procedure: as §1, §2

## C=CC(=O)Nc1ccc(C(=O)N2CC[C@@H](Nc3ncc(C#N)cn3)C2)cc1 [Compound 4, (R)-N-(4-(3-((5-cyanopyrimidin-2-yl)amino)pyrrolidine-1-carbonyl)phenyl)acrylamide]
[1]
  inhibition at 1 µM: 6%
[2]
  inhibition at 1 µM: 5%
[3]
  inhibition at 1 µM: 13%
[4]
  inhibition at 1 µM: 22%
[5]
  inhibition at 1 µM: -6%
[6]
  inhibition at 1 µM: -9%
[7]
  inhibition at 1 µM: -4%
[8]
  inhibition at 1 µM: 3%
[9]
  inhibition at 1 µM: 87%
[10]
  inhibition at 1 µM: 7%
[11]
  inhibition at 1 µM: -1%
[12]
  inhibition at 1 µM: -3%
[13]
  inhibition at 1 µM: -15%
[14]
  inhibition at 1 µM: -3%
[15]
  inhibition at 1 µM: -8%
[16]
  inhibition at 1 µM: 11%
[17]
  inhibition at 1 µM: 6%
[18]
  inhibition at 1 µM: 17%
[19]
  inhibition at 1 µM: 12%
[20]
  inhibition at 1 µM: 2%
[21]
  inhibition at 1 µM: -7%
[22]
  inhibition at 1 µM: 5%
[23]
  inhibition at 1 µM: 8%
[24]
  inhibition at 1 µM: 5%
[25]
  inhibition at 1 µM: 4%
[26]
  inhibition at 1 µM: 9%
[27]
  inhibition at 1 µM: -14%
[28]
  inhibition at 1 µM: -3%
[29]
  inhibition at 1 µM: 0%
[30]
  inhibition at 1 µM: 3%
[31]
  inhibition at 1 µM: 8%
